Tests used:
[1] = molecular target: KRas G12S (Homo sapiens, UniProt P01116, G12S); assay type: binding; conditions: for inhibition at 0.01 µM: single point, 10 nM compound, read-out: Binding to KRas (% inhibition at 10 nM) G12S
[2] = molecular target: KRas WT (Homo sapiens, UniProt P01116); assay: KRas binding assay (TR-FRET displacement), KRas WT; conditions: for inhibition at 0.01 µM: single point, 10 nM compound
[3] = molecular target: KRas G12C (Homo sapiens, UniProt P01116, G12C); assay type: binding; conditions: for inhibition at 0.01 µM: single point, 10 nM compound, read-out: Binding to KRas (% inhibition at 10 nM) G12C
Sequence of KRas G12C (P01116 1-169 isoform P01116-2 G12C): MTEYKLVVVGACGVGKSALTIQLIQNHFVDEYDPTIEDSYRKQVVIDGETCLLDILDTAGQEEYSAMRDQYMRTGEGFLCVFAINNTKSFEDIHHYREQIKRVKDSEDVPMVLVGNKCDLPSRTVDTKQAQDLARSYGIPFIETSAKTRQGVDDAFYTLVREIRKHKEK

[4] = system: H727 cells; assay: Inhibition of KRas-mediated phosphorylation of ERK (Cisbio HTRF pERK), H727 cells; assay type: cell-based; conditions: Homo sapiens, NCI-H727, 3 h, 3 hr compound incubation, Cisbio pERK HTRF
[5] = molecular target: KRas G12R (Homo sapiens, UniProt P01116, G12R); assay: biochemical; conditions: Binding to KRas (IC50 nM) G12R, TR-FRET displacement, KRas G12R
Sequence of KRas G12R (P01116 1-169 isoform P01116-2 G12R): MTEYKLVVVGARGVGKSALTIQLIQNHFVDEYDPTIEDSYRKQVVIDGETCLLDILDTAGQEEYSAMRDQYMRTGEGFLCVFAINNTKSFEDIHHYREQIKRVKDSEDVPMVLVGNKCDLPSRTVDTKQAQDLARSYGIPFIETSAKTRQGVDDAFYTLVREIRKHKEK

[6] = molecular target: KRas G12V (Homo sapiens, UniProt P01116, G12V); assay: biochemical; conditions: Binding to KRas (IC50 nM) G12V, TR-FRET displacement, KRas G12V
Sequence of KRas G12V (P01116 1-169 isoform P01116-2 G12V): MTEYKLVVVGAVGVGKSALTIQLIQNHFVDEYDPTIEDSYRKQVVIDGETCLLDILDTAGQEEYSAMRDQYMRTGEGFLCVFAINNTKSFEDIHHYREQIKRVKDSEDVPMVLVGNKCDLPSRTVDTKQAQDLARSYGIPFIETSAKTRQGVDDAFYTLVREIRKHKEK

[7] = system: MKN1 cells; assay: Inhibition of KRas-mediated phosphorylation of ERK (Cisbio HTRF pERK), MKN1 cells; assay type: cell-based; conditions: Homo sapiens, MKN-1, 3 hour compound incubation, Cisbio pERK HTRF
Outline: (§1)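 Phospho-ERK signal measured by HTRF after cells had been plated at 6,000/well in RPMI supplemented with 10% FBS on day 1.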

[8] = system: A549 cells; assay: Inhibition of KRas-mediated phosphorylation of ERK (Cisbio HTRF pERK), A549 cells; assay type: cell-based; conditions: Homo sapiens, A549, 3 h, 3 hr compound incubation, Cisbio pERK HTRF
[9] = system: H460 cells; assay: Inhibition of KRas-mediated phosphorylation of ERK (Cisbio HTRF pERK), H460 cells; assay type: cell-based; conditions: Homo sapiens, NCI-H460, 3 h, 3 hr compound incubation, Cisbio pERK HTRF
[10] = molecular target: KRas G12D (Homo sapiens, UniProt P01116, G12D); assay: biochemical; conditions: Binding to KRas (IC50 nM) G12D, TR-FRET displacement, KRas G12D
Sequence of KRas G12D (P01116 1-169 isoform P01116-2 G12D): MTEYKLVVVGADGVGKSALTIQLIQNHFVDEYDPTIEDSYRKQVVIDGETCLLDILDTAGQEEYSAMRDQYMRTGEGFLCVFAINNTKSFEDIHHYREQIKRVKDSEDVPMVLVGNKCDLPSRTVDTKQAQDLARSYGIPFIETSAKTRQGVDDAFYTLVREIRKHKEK

[11] = molecular target: KRas Q61H (Homo sapiens, UniProt P01116, Q61H); assay: KRas binding assay (TR-FRET displacement), KRas Q61H; conditions: for inhibition at 0.01 µM: single point, 10 nM compound
Sequence of KRas Q61H (P01116 1-169 isoform P01116-2 Q61H): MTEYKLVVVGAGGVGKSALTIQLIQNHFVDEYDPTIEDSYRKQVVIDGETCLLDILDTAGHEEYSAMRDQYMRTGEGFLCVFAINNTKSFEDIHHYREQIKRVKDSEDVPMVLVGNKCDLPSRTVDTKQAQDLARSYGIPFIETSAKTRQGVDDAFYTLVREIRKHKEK

[12] = system: PSN1 cells; assay: Inhibition of KRas-mediated phosphorylation of ERK (Cisbio HTRF pERK), PSN1 cells; assay type: cell-based; conditions: Homo sapiens, PSN1, 3 h, 3 hour compound incubation, Cisbio pERK HTRF
Outline: as §1

[13] = system: ASPC1 cells; assay: Inhibition of KRas-mediated phosphorylation of ERK (Cisbio HTRF pERK), ASPC1 cells; assay type: cell-based; conditions: Homo sapiens, ASPC1, 3 h, AsPC-1 cells; 3 hr compound incubation; Cisbio pERK HTRF
[14] = molecular target: KRas G13D (Homo sapiens, UniProt P01116, G13D); assay type: binding; conditions: for inhibition at 0.01 µM: single point, 10 nM compound, read-out: Binding to KRas (% inhibition at 10 nM) G13D
Sequence of KRas G13D (P01116 1-169 isoform P01116-2 G13D): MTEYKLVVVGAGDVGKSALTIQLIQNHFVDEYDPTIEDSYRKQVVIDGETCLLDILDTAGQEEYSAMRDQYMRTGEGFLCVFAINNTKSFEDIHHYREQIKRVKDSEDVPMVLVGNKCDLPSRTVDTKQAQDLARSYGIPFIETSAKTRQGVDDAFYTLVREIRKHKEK

[15] = system: HCT116 cells; assay: Inhibition of KRas-mediated phosphorylation of ERK (Cisbio HTRF pERK), HCT116 cells; assay type: cell-based; conditions: Homo sapiens, HCT-116, 3 h, 3 hr compound incubation, Cisbio pERK HTRF
[16] = molecular target: KRas G12A (Homo sapiens, UniProt P01116, G12A); assay type: binding; conditions: for inhibition at 0.01 µM: single point, 10 nM compound, read-out: Binding to KRas (% inhibition at 10 nM) G12A
Sequence of KRas G12A (P01116 1-169 isoform P01116-2 G12A): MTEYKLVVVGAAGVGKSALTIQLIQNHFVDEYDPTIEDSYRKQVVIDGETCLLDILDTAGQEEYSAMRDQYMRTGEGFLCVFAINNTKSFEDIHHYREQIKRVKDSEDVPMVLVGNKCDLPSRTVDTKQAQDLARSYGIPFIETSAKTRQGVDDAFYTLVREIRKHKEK

Sequence of KRas G12S (P01116 1-169 isoform P01116-2 G12S): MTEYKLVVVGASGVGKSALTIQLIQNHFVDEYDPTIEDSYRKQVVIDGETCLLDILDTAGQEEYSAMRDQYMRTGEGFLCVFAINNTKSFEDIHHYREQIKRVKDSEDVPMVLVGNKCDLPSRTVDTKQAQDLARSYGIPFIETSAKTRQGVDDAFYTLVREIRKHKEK
Sequence of KRas WT (P01116 1-169 isoform P01116-2): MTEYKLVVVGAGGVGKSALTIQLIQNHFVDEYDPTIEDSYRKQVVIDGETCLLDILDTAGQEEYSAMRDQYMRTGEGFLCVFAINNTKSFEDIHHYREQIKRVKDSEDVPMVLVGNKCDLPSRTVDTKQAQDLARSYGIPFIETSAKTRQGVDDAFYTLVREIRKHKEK

With CCc1c(F)ccc2cc(O)cc(N3CCc4c(nc(OC[C@@]56CCCN5C[C@H](F)C6)nc4N4CCCn5nc(C(=O)N6CCN(C)CC6)cc5C4)C3)c12 [Example 402, (5-(7-(8-ethyl-7-fluoro-3-hydroxynaphthalen-1-yl)-2-(((2R,7aS)-2-fluorohexahydro-1H-pyrrolizin-7a-yl)methoxy)-5,6,7,8-tetrahydropyrido[3,4-d]pyrimidin-4-yl)-5,6,7,8-tetrahydro-4H-pyrazolo[1,5-a][1,4]diazepin-2-yl)(4-methylpiperazin-1-yl)methanone] the inhibition at 0.01 µM [1] was 99%, the inhibition at 0.01 µM [2] was 98% and the inhibition at 0.01 µM [3] was 100%. It also gave an IC50 [4] of 10 nM, an IC50 [5] of less than 2 nM and an IC50 [6] of less than 2 nM. The IC50 [7] was 5.7 nM, the IC50 [8] was 23 nM and the IC50 [9] was 24 nM. For the same compound, the IC50 [10] was less than 2 nM, the inhibition at 0.01 µM [11] was 98% and the IC50 [12] was 3910 nM. It also gave an IC50 [13] of 2 nM, an inhibition at 0.01 µM [14] of 98% and an IC50 [15] of 54 nM. The inhibition at 0.01 µM [16] was 98%.

CCc1c(F)ccc2cc(O)cc(N3CCc4c(nc(OC[C@@]56CCCN5C[C@H](F)C6)nc4N4CCCn5nc(C(=O)N(C)C)nc5C4)C3)c12 [Example 403, 8-(7-(8-ethyl-7-fluoro-3-hydroxynaphthalen-1-yl)-2-(((2R,7aS)-2-fluorohexahydro-1H-pyrrolizin-7a-yl)methoxy)-5,6,7,8-tetrahydropyrido[3,4-d]pyrimidin-4-yl)-N,N-dimethyl-6,7,8,9-tetrahydro-5H-[1,2,4]triazolo[1,5-a][1,4]diazepine-2-carboxamide] showed an inhibition at 0.01 µM [1] of 100%, an inhibition at 0.01 µM [2] of 100% and an inhibition at 0.01 µM [3] of 100%. It also gave an IC50 [4] of 7 nM, an IC50 [5] of less than 2 nM and an IC50 [6] of less than 2 nM. The IC50 [7] was 2 nM, the IC50 [8] was 3 nM and the IC50 [9] was 18 nM. It also gave an IC50 [10] of less than 2 nM, an inhibition at 0.01 µM [11] of 100% and an IC50 [12] of 2940 nM. For the same compound, the IC50 [13] was 2 nM, the inhibition at 0.01 µM [14] was 100% and the IC50 [15] was 44 nM. For the same compound, the inhibition at 0.01 µM [16] was 100%.

For CCc1c(F)ccc2cc(O)cc(N3CCc4c(nc(OC[C@@]56CCCN5C[C@H](F)C6)nc4N4CCCn5nc(NC)c(F)c5C4)C3)c12 [Example 406, 5-ethyl-6-fluoro-4-(4-(3-fluoro-2-(methylamino)-7,8-dihydro-4H-pyrazolo[1,5-a][1,4]diazepin-5(6H)-yl)-2-(((2R,7aS)-2-fluorohexahydro-1H-pyrrolizin-7a-yl)methoxy)-5,6-dihydropyrido[3,4-d]pyrimidin-7(8H)-yl)naphthalen-2-ol], the inhibition at 0.01 µM [1] was 82%, the inhibition at 0.01 µM [2] was 68% and the inhibition at 0.01 µM [3] was 87%. It also gave an IC50 [4] of 100 nM, an IC50 [5] of less than 2 nM and an IC50 [6] of 3 nM. For the same compound, the IC50 [7] was 24.6 nM, the IC50 [8] was 110 nM and the IC50 [9] was 143 nM. For the same compound, the IC50 [10] was less than 2 nM, the inhibition at 0.01 µM [11] was 66% and the IC50 [12] was greater than 10000 nM. The IC50 [13] was 59 nM, the inhibition at 0.01 µM [14] was 70% and the IC50 [15] was 331 nM. It also gave an inhibition at 0.01 µM [16] of 73%.

CCc1c(F)ccc2cc(O)cc(N3CCc4c(nc(OC[C@@]56CCCN5C[C@H](F)C6)nc4N4CCCn5nc(NC(C)C)cc5C4)C3)c12 [Example 407, 5-ethyl-6-fluoro-4-(2-(((2R,7aS)-2-fluorohexahydro-1H-pyrrolizin-7a-yl)methoxy)-4-(2-(isopropylamino)-7,8-dihydro-4H-pyrazolo[1,5-a][1,4]diazepin-5(6H)-yl)-5,6-dihydropyrido[3,4-d]pyrimidin-7(8H)-yl)naphthalen-2-ol] showed an inhibition at 0.01 µM [1] of 71%, an inhibition at 0.01 µM [2] of 56% and an inhibition at 0.01 µM [3] of 78%. It also gave an IC50 [4] of 86 nM, an IC50 [5] of 2 nM and an IC50 [6] of 4 nM. The IC50 [7] was 32.9 nM, the IC50 [8] was 124 nM and the IC50 [9] was 151 nM. It also gave an IC50 [10] of 4 nM, an inhibition at 0.01 µM [11] of 56% and an IC50 [12] greater than 10000 nM. For the same compound, the IC50 [13] was 97 nM, the inhibition at 0.01 µM [14] was 56% and the IC50 [15] was 593 nM. It also gave an inhibition at 0.01 µM [16] of 61%.

For CCc1c(F)ccc2cc(O)cc(N3CCc4c(nc(OC[C@@]56CCCN5C[C@H](F)C6)nc4N4CCCn5nc6c(c5C4)CCNC6=O)C3)c12 [Example 408, 2-(7-(8-ethyl-7-fluoro-3-hydroxynaphthalen-1-yl)-2-(((2R,7aS)-2-fluorohexahydro-1H-pyrrolizin-7a-yl)methoxy)-5,6,7,8-tetrahydropyrido[3,4-d]pyrimidin-4-yl)-2,3,4,5,10,11-hexahydro-1H-pyrido[3′,4′:3,4]pyrazolo[1,5-a][1,4]diazepin-8(9H)-one], the inhibition at 0.01 µM [1] was 100%, the inhibition at 0.01 µM [2] was 98% and the inhibition at 0.01 µM [3] was 99%. The IC50 [4] was 166 nM, the IC50 [5] was less than 2 nM and the IC50 [6] was less than 2 nM. It also gave an IC50 [7] of 21.7 nM, an IC50 [8] of 363 nM and an IC50 [9] of 594 nM. The IC50 [10] was less than 2 nM, the inhibition at 0.01 µM [11] was 97% and the IC50 [12] was 5510 nM. The IC50 [13] was 90 nM, the inhibition at 0.01 µM [14] was 97% and the IC50 [15] was 1040 nM. The inhibition at 0.01 µM [16] was 98%.

Compound CCc1c(F)ccc2cc(O)cc(N3CCc4c(nc(OC[C@@]56CCCN5C[C@H](F)C6)nc4N4CCCn5nc6c(c5C4)CCCN(C)C6=O)C3)c12 [Example 409, 2-(7-(8-ethyl-7-fluoro-3-hydroxynaphthalen-1-yl)-2-(((2R,7aS)-2-fluorohexahydro-1H-pyrrolizin-7a-yl)methoxy)-5,6,7,8-tetrahydropyrido[3,4-d]pyrimidin-4-yl)-9-methyl-2,3,4,5,9,10,11,12-octahydroazepino[3′,4′:3,4]pyrazolo[1,5-a][1,4]diazepin-8(1H)-one] has an inhibition at 0.01 µM [1] of 100%, an inhibition at 0.01 µM [2] of 100% and an inhibition at 0.01 µM [3] of 100%. It also gave an IC50 [4] of 7 nM, an IC50 [5] of less than 2 nM and an IC50 [6] of less than 2 nM. The IC50 [7] was 3.1 nM, the IC50 [8] was 22 nM and the IC50 [9] was 57 nM. The IC50 [10] was less than 2 nM, the inhibition at 0.01 µM [11] was 100% and the IC50 [12] was 1220 nM. For the same compound, the IC50 [13] was 8 nM, the inhibition at 0.01 µM [14] was 100% and the IC50 [15] was 212 nM. It also gave an inhibition at 0.01 µM [16] of 100%.

Compound CCc1c(F)ccc2cc(O)cc(N3CCc4c(nc(OC[C@@]56CCCN5C[C@H](F)C6)nc4N4CCCn5nc(C(=O)OC)cc5C4)C3)c12 [Example 411, methyl 5-(7-(8-ethyl-7-fluoro-3-hydroxynaphthalen-1-yl)-2-(((2R,7aS)-2-fluorohexahydro-1H-pyrrolizin-7a-yl)methoxy)-5,6,7,8-tetrahydropyrido[3,4-d]pyrimidin-4-yl)-5,6,7,8-tetrahydro-4H-pyrazolo[1,5-a][1,4]diazepine-2-carboxylate] has an inhibition at 0.01 µM [1] of 88%, an inhibition at 0.01 µM [2] of 73% and an inhibition at 0.01 µM [3] of 90%. For the same compound, the IC50 [4] was 54 nM, the IC50 [5] was less than 2 nM and the IC50 [6] was less than 2 nM. It also gave an IC50 [7] of 30.1 nM, an IC50 [8] of 111 nM and an IC50 [9] of 260 nM. For the same compound, the IC50 [10] was less than 2 nM, the inhibition at 0.01 µM [11] was 71% and the IC50 [12] was 6540 nM. For the same compound, the IC50 [13] was 31 nM, the inhibition at 0.01 µM [14] was 75% and the IC50 [15] was 423 nM. For the same compound, the inhibition at 0.01 µM [16] was 74%.

Compound CN(C)C(=O)c1cc2n(n1)CCCN(c1nc(OC[C@@]34CCCN3C[C@H](F)C4)nc3c1CCN(c1cccc4cccc(Cl)c14)C3)C2 [Example 483, 5-(7-(8-chloronaphthalen-1-yl)-2-(((2R,7aS)-2-fluorohexahydro-1H-pyrrolizin-7a-yl)methoxy)-5,6,7,8-tetrahydropyrido[3,4-d]pyrimidin-4-yl)-N,N-dimethyl-5,6,7,8-tetrahydro-4H-pyrazolo[1,5-a][1,4]diazepine-2-carboxamide] has an IC50 ([1]; TR-FRET displacement, read-out: Binding to KRas (IC50 nM) G12S) of 46 nM, an IC50 ([2]; TR-FRET displacement) of 150 nM and an IC50 ([3]; TR-FRET displacement, read-out: Binding to KRas (IC50 nM) G12C) of 42 nM. For the same compound, the IC50 [4] was 1220 nM, the IC50 [5] was 57 nM and the IC50 [6] was 20 nM. It also gave an IC50 [7] of 1470 nM, an IC50 [10] of 9 nM and an IC50 ([11]; TR-FRET displacement) of 238 nM. The IC50 [12] was greater than 10000 nM, the IC50 [13] was 1160 nM and the IC50 ([14]; TR-FRET displacement, read-out: Binding to KRas (IC50 nM) G13D) was 239 nM. For the same compound, the IC50 ([16]; TR-FRET displacement, read-out: Binding to KRas (IC50 nM) G12A) was 81 nM.

— patent publication US20250368649A1, “TETRAHYDROPYRIDOPYRIMIDINE PAN-KRAS INHIBITORS” (Mirati Therapeutics, Inc., priority 2022, published 2025)
